Tested on: HSP70
Assay: HSP70 protein expression inducing activity in HeLa cells (ELISA)
Assay type: cell-based, human
Conditions: final concentration 1 mg/mL, 24 hours
Description: The HSP70 inducing activity of the samples 1, 3, and 4 which were the same ones as used in Example 4 was evaluated by measuring an HSP70 protein expression level. In the same manner as described in Example 4, HeLa cells that had been suspended in DMEM (added with 10% FBS) were seeded in a 12-well plate (100,000 cells/mL/well). […] A part of the cells were then scraped off with a cell scraper, collected into a 1.5 mL sample tube, and subjected to HSP70 protein quantification and total protein quantification. The quantification of HSP70 protein was carried out using HSP70 ELISA kit (product name) (manufactured by Enzo); and the quantification of total protein was carried out using Micro BCA Protein Assay Reagent kit (product name) (manufactured by PIERCE Biotechnology). With regard to the remaining cells, an effect on cell proliferation was evaluated by 3-(4,5-dimethyl […])-2,5-diphenyltetrazalium bromide (MTT) method. […]

Q: How did the “increased HSP70 protein expression as compared with the control” value turn out when `O=Cc1ccc(CO)o1` [sample 1, 5-Hydroxymethyl-2-furaldehyde] was run?
A: about 1.3 fold

From patent US9610279B2, “Method for induction of a heat shock protein, anti-stress or regulation of an autonomic nerve” (AMINO UP CHEMICAL CO., LTD., priority 2011, dated 2017)
